Square brackets hold non-standard residues; d marks the D form. Ends that are not written are not given here. Peptide text beside a SMILES is read from it.
Tests used:
[1] = system: transplanted tissue or organ; cyclosporine nephrotoxicity; experiment: Peptide with cyclosporine in transplant patients: organ health and nephrotoxicity (Example 7); type: in vivo; settings: subjects who receive the peptide versus those who do not; predicted
Description: To prevent organ or tissue rejection after transplant, patients often receive a regimen of the immunosuppressive drug cyclosporine. Cyclosporine levels are established and maintained in the subject at levels to effectively suppress the immune system. However, nephrotoxicity is a concern for these subjects, and the level of the drug in the subject's blood is monitored carefully. Cyclosporine doses are adjusted accordingly in order to not only prevent rejection, but also to deter these potentially damaging side effects. Typically, an adult transplant patient receives cyclosporine as follows: IV: 2 to 4 mg/kg/day IV infusion once a day over 4 to 6 hours, or 1 to 2 mg/kg IV infusion twice a day over 4 to 6 hours, or 2 to 4 mg/kg/day as a continuous IV infusion over 24 hours. Capsules: 8 to 12 mg/kg/day orally in 2 divided doses. Solution: 8 to 12 mg/kg orally once a day. […]
A therapeutically effective amount of an aromatic-cationic peptide or pharmaceutically acceptable salt thereof such as acetate or trifluoroacetate salt is administered to subjects prior to, during and/or after transplant as show in Table 13 above. Subjects are monitored for health and function of the transplanted tissue or organ, as well as the incidence and severity of nephrotoxicitity often seen with prolonged cyclosporine administration.

mu-opioid receptor = settings: result in words; no data shown; cited from earlier work
[2] = system: several mammalian cell types; settings: energy-independent manner; Zhao et al. 2003; cited from earlier work

Compound	mu-opioid receptor agonist activity (mu-opioid receptor)	also measured
Cc1cc(O)cc(C)c1C[C@H](NC(=O)[C@H](N)CCCNC(=N)N)C(=O)N[C@@H](CCCCN)C(=O)N[C@@H](Cc1ccccc1)C(N)=O [PEPTIDE, D-Arg-2′6′-Dmt-Lys-Phe-NH2] (HELM PEPTIDE1{[dR].[Cc1cc(O)cc(C)c1C[C@H](N[*:1])C(=O)[*:2]].K.F.[am]}$$$$V2.0)	–	tolerated cyclosporine dosage [1]: able to maintain a higher and/or more consistent cyclosporine dosage for longer periods of time
Tyr-D-Arg-Phe-Lys-NH2 [SS-01]	has mu-opioid receptor agonist activity	–
F[dR]FK-NH2 [SS-20]	does not have mu-opioid receptor agonist activity	–
2′,6′-Dmt-D-Arg-Phe-Lys-NH2 [SS-02]	–	penetration of the plasma membrane [2]: readily penetrates the plasma membrane
